The values that follow come from patent US20250257041A1, “INDUCERS OF INTEGRATED STRESS RESPONSE TO TREAT CANCER” (The Board of Regents of The University of Texas System, priority 2022, published 2025).

The assay relates to HCT116 WT. The assay can be described thus: Proliferation of HCT116 colorectal cell line, Cell TiterGlo. Type of assay: cell-based, human. The protocol: Briefly, compounds were tested for their effect on proliferation of HCT116 colorectal cell lines using Cell TiterGlo (Promega). Each compound was tested in a 10-point dose response experiment in triplicate. Multiple values in the column titled HCT116 WT reflect separate independent experiments. The three columns titled “HCT116 WT (repeat)”, “HCT116-CGN2KO” and “HCT116 WT+ISRIB” provide data for selected compounds that were tested simultaneously under three conditions. The HCT116 WT column lists IC50 against the wild type HCT116 colorectal cancer cell line. The HCT116-CGN2KO lists IC50 data for cells in which one component of the integrated stress response, GCN2, has been knocked out using CRISPR technology.
A general note: ATP-based viability assays read luminescence as a measure of living cells.

[1] abbreviates: Homo sapiens, HCT-116, wild type HCT116, 10-point dose response in triplicate, multiple values = separate independent experiments, read-out: HCT116 IC50 (uM) HCT116 WT.
Where [2] appears, read: wild type HCT116, 10-point dose response in triplicate, multiple values = separate independent experiments.

Where two headings read alike, the source gives them in different places.

For `Cn1nc(-c2ccc(NC(=O)c3ccccc3Cl)cc2)cc1NC(=O)C1CCCCCC1` [SW394599, N-(3-(4-(2-Chlorobenzamido)phenyl)-1-methyl-1H-pyrazol-5-yl)cycloheptanecarboxamide], the IC50 (commonly the concentration that inhibits the measured activity by half) under setting [1] is 0.05 µM. Still for that read-out and setting: the figure for `Cn1nc(-c2ccc(NC(=O)c3ccccc3Cl)cc2)cc1NC(=O)C1CCCC1` [SW394600, 2-Chloro-N-(4-(5-(cyclopentanecarboxamido)-1-methyl-1H-pyrazol-3-yl)phenyl)benzamide] is 0.051 µM. On to `Cn1nc(-c2ccc(NC(=O)N3CCCCC3)cc2)cc1NC(=O)c1ccccc1` [SW394601, N-(4-(5-benzamido-1-methyl-1H-pyrazol-3-yl)phenyl)piperidine-1-carboxamide], for which the IC50 (wild type HCT116, 10-point dose response in triplicate, multiple values = separate independent experiments, read-out: HCT116 IC50 (uM) HCT116 WT) is 7.4 µM. On to `Cn1nc(-c2ccc(NC(=O)c3ccccc3Cl)cc2)cc1NC(=O)C1CCC(F)(F)CC1` [SW394602, 2-Chloro-N-(4-(5-(4,4-difluorocyclohexane-1-carboxamido)-1-methyl-1H-pyrazol-3-yl)phen-yl)benzamide], for which the IC50 under setting [1] amounted to 0.049 µM. With `Cn1nc(-c2ccc(NC(=O)c3cccnc3C(F)(F)F)cc2)cc1NC(=O)c1ccccc1` [SW394603, N-(4-(5-Benzamido-1-methyl-1H-pyrazol-3-yl)phenyl)-2-(trifluoromethyl)nicotinamide], the IC50 under setting [1] stood at 0.02 µM. Still for that read-out and setting: in the case of `Cn1nc(-c2ccc(NC(=O)c3cccnc3C(F)(F)F)cc2)cc1NC(=O)c1ccccc1F` [SW394629, N-(4-(5-(2-Fluorobenzamido)-1-methyl-1H-pyrazol-3-yl)phenyl)-2-(trifluoromethyl)nicotinamide] it was 0.017 µM; in that of `Cc1ncccc1C(=O)Nc1ccc(-c2cc(NC(=O)c3ccccc3Cl)n(C)n2)cc1` [SW394630, N-(4-(5-(2-Chlorobenzamido)-1-methyl-1H-pyrazol-3-yl)phenyl)-2-methylnicotinamide], 0.014 µM; in that of `Cn1nc(-c2ccc(NC(=O)c3cccnc3C(F)(F)F)cc2)cc1NC(=O)c1ccccc1Cl` [SW394631, N-(4-(5-(2-Chlorobenzamido)-1-methyl-1H-pyrazol-3-yl)phenyl)-2-(trifluoromethyl)nicotinamide], 0.022 µM. Same read-out and setting: in the case of `Cn1nc(-c2ccc(NC(=O)c3ccccc3COCCNC(=O)CCCC[C@H]3SC[C@H]4NC(=O)N[C@H]43)cc2)cc1NC(=O)c1ccccc1` [SW394656, N-(4-(5-benzamido-1-methyl-1H-pyrazol-3-yl)phenyl)-2-((2-(5-((3aR,4R,6aS)-2-oxohexahydro-1H-thieno[3,4-d]imidazol-4-yl)pentanamido)ethoxy)methyl)benzamide] it was 0.071 µM; in that of `Cn1nc(-c2ccc(CC(=O)c3ccccc3CCCNC(=O)CCCC[C@@H]3CC[C@]4(C)CCC[C@H]34)cc2)cc1CC(=O)c1ccccc1` [SW394657], 0.044 µM. The same measure, in the same setting: the figure for `Cn1nc(-c2ccc(NC(=O)c3ccccc3Cl)cc2)cc1NC(=O)c1cccc(CCCNC(=O)CCCC[C@H]2SC[C@H]3NC(=O)N[C@H]32)c1` [SW394692, 2-chloro-N-(4-(1-methyl-5-(3-(3-(5-((3aR,4R,6aS)-2-oxohexahydro-1H-thieno[3,4-d]142 imidazole-4-yl)pentanamido)propyl)benzamido)-1H-pyrazol-3-yl)phenyl)benzamide] is 0.5 µM. Take `Cn1nc(-c2ccc(NC(=O)c3ccccc3Cl)cc2)cc1NC(=O)c1cccc(C#CCN)c1` [SW394693, N-(4-(5-(3-(3-aminoprop-1-yn-1-yl)benzamido)-1-methyl-1H-pyrazol-3-yl)phenyl)-2-chlorobenzamide]: the IC50 under setting [1] was 0.17 µM.

As to `Cc1ncccc1C(=O)Nc1ccc(-c2cc(NC(=O)c3ccccc3)n(C)n2)c(F)c1` [SW394694, N-(4-(5-Benzamido-1-methyl-1H-pyrazol-3-yl)-3-fluorophenyl)-2-methylnicotinamide], the IC50 under setting [1] is 0.03 µM. `Cc1ncccc1C(=O)Nc1ccc(-c2cc(NC(=O)c3ccccc3F)n(C)n2)c(F)c1` [SW394695, N-(3-Fluoro-4-(5-(2-fluorobenzamido)-1-methyl-1H-pyrazol-3-yl)phenyl)-2-methylnicotinamide]: the concentration for half-maximal inhibition (IC50) under setting [1] was found to be 0.03 µM. Same read-out and setting: the figure for `Cc1ncccc1C(=O)Nc1ccc(-c2cc(NC(=O)C3CCC(F)(F)CC3)n(C)n2)c(F)c1` [SW394696, N-(4-(5-(4,4-Difluorocyclohexane-1-carboxamido)-1-methyl-1H-pyrazol-3-yl)-3-fluorophen-yl)-2-methylnicotinamide] is 0.09 µM; for `Cn1nc(-c2ccc(NC(=O)c3ccccc3N3CCOCC3)cc2)cc1NC(=O)c1ccccc1` [SW394697, N-(4-(5-Benzamido-1-methyl-1H-pyrazol-3-yl)phenyl)-2-morpholinobenzamide] it is 0.77 µM; for `CN1CCN(c2ccccc2C(=O)Nc2ccc(-c3cc(NC(=O)c4ccccc4)n(C)n3)cc2)CC1` [SW394698, N-(4-(5-Benzamido-1-methyl-1H-pyrazol-3-yl)phenyl)-2-(4-methylpiperazin-1-yl)benzamide] it is 10 µM. Still for that read-out and setting: the figure for `Cc1ncccc1C(=O)Nc1ccc(-c2cc(NC(=O)c3ccccc3Cl)n(C)n2)c(F)c1` [SW394699, N-(4-(5-(2-chlorobenzamido)-1-methyl-1H-pyrazol-3-yl)-3-fluorophenyl)-2-methylnicotinamide] is 0.02 µM. Same read-out and setting: the figure for `Cn1nc(-c2ccc(NC(=O)c3ccccc3COCCN=[N+]=[N-])cc2)cc1NC(=O)c1cccc(C(=O)c2ccccc2)c1` [SW394738, 2-((2-azidoethoxy)methyl)-N-(4-(5-(3-benzoylbenzamido)-1-methyl-1H-pyrazol-3-yl)phenyl)benzamide] is 0.07 µM. Take `Cn1nc(-c2ccc(NC(=O)c3ccccc3COCCN=[N+]=[N-])cc2)cc1NC(=O)c1cccc(C2(C(F)(F)F)N=N2)c1` [SW394739, 2-((2-azidoethoxy)methyl)-N-(4-(1-methyl-5-(3-(3-(trifluoromethyl)-3H-diazirin-3-yl)benzamido)-1H-pyrazol-3-yl)phenyl)benzamide]: the IC50 (Homo sapiens, HCT-116, read-out: HCT116 IC50 (uM) HCT116 WT) was 0.4 µM. As for `C#Cc1cccc(C(=O)Nc2cc(-c3ccc(NC(=O)c4ccccc4COCCNC(=O)CCC4(C)N=N4)cc3)nn2C)c1` [SW394741, N-(4-(5-(3-ethynylbenzamido)-1-methyl-1H-pyrazol-3-yl)phenyl)-2-((2-(3-(3-methyl-3H-diazirin-3-yl)propanamido)ethoxy)methyl)benzamide], the IC50 under setting [1] came out at 0.17 µM. Still for that read-out and setting: the figure for `Cc1ncccc1C(=O)Nc1ccc(-c2cc(NC(=O)c3ccccc3)n(C)n2)cc1F` [SW394743, N-(4-(5-Benzamido-1-methyl-1H-pyrazol-3-yl)-2-fluorophenyl)-2-methylnicotinamide] is 15 µM. `Cc1ncccc1C(=O)Nc1ccc(-c2cc(NC(=O)C3CCC(F)(F)CC3)n(C)n2)cc1F` [SW394744, N-(4-(5-(4,4-Difluorocyclohexane-1-carboxamido)-1-methyl-1H-pyrazol-3-yl)-2-fluorophen-yl)-2-methylnicotinamide]: the IC50 under setting [1] is above 50 µM. Same read-out and setting: the figure for `Cc1ncccc1C(=O)Nc1ccc(-c2cc(NC(=O)c3ccccc3F)n(C)n2)cc1F` [SW394745, N-(2-Fluoro-4-(5-(2-fluorobenzamido)-1-methyl-1H-pyrazol-3-yl)phenyl)-2-methylnicotinamide] is 21.7 µM; for `Cc1ncccc1C(=O)Nc1ccc(-c2cc(NC(=O)C3CCOCC3)n(C)n2)cc1` [SW394746, 2-Methyl-N-(4-(1-methyl-5-(tetrahydro-2H-pyran-4-carboxamido)-1H-pyrazol-3-yl)phenyl)nicotinamide] it is 0.13 µM; for `Cn1nc(-c2ccc(NC(=O)c3cccc(CN=[N+]=[N-])c3Cl)cc2)cc1NC(=O)c1ccccc1Cl` [SW394763, 3-(azidomethyl)-2-chloro-N-(4-(5-(2-chlorobenzamido)-1-methyl-1H-pyrazol-3-yl)phenyl)benzamide] it is 0.02 µM.

Turning to `Cn1nc(-c2ccc(NC(=O)c3ccccc3C3CCN(C(=O)OC(C)(C)C)CC3)cc2)cc1NC(=O)c1ccccc1` [SW394764, tert-butyl4-(2-((4-(5-benzamido-1-methyl-1H-pyrazol-3-yl)phenyl)carbamoyl)phenyl)piperidine-1-carboxylate], the concentration for half-maximal inhibition (IC50) under setting [1] was determined as 0.3 µM.

As to `Cn1nc(-c2ccc(NC(=O)c3ccccc3C3CCNCC3)cc2)cc1NC(=O)c1ccccc1` [SW394767, N-(4-(5-benzamido-1-methyl-1H-pyrazol-3-yl)phenyl)-2-(piperidin-4-yl)benzamide], the IC50 under setting [1] worked out at 0.27 µM. `Cn1nc(-c2ccc(NC(=O)c3ccccc3Cl)cc2)cc1NS(=O)(=O)c1ccccc1` [SW394768, 2-Chloro-N-(4-(1-methyl-5-(phenylsulfonamido)-1H-pyrazol-3-yl)phenyl)benzamide]: under setting [2], the “HCT116 IC50 (uM) HCT116 WT” value was “inactive”. As to `Cn1nc(-c2ccc(NC(=O)c3cccc(CN)c3Cl)cc2)cc1NC(=O)c1ccccc1Cl` [SW394771, 3-(aminomethyl)-2-chloro-N-(4-(5-(2-chlorobenzamido)-1-methyl-1H-pyrazol-3-yl)phenyl)benzamide], the IC50 under setting [1] came to 0.086 µM.

With `Cn1nc(-c2ccc(NC(=O)c3ccccc3Cl)cc2)cc1NC(=O)c1cccc(C(=O)O)c1` [SW394800, 3-((3-(4-(2-Chlorobenzamido)phenyl)-1-methyl-1H-pyrazol-5-yl)carbamoyl)benzoic acid], under setting [2], the “HCT116 IC50 (uM) HCT116 WT” value is “inactive”. For `CN(C)c1cccc(C(=O)Nc2cc(-c3ccc(NC(=O)c4ccccc4Cl)cc3)nn2C)c1` [SW394870, 2-Chloro-N-(4-(5-(3-(dimethylamino)benzamido)-1-methyl-1H-pyrazol-3-yl)phenyl)benzamide], under setting [1], the IC50 is 0.02 µM.
